Results on 21 compounds are retold here after BindingDB's records for doi:10.1016/j.ejmech.2016.05.062 (University of Siena, 2016).

pEC50: −log10 of the molar value.

One assay can be described thus: Agonist activity at Smo in mouse C3H10T1/2 cells assessed as induction of cell differentiation into osteoblast incubated for 6 days by alkaline phosphatase assay.
With `CNC1CCC(N(Cc2cccc(-c3ccncc3)c2)C(=O)c2sc3ccccc3c2Cl)CC1` (stereo unspecified), the pEC50 was 6.89.

A short description of a further assay: Activity at Smo in mouse C3H10T1/2 cells assessed as induction of cell differentiation into osteoblast incubated for 6 days by alkaline phosphatase assay.
In the case of `CCCCCCn1c(=O)c(C(=O)Nc2ccc(C(=O)OC(C)C)cc2)c(O)c2ccccc21`, the pEC50 is 5.19.

For `CCCCCCn1c(=O)c(C(=O)Nc2ccc(C(=O)OCCCC)cc2)c(O)c2ccccc21`, the pEC50 is 5.82.

As for `CCCCCn1c(=O)c(C(=O)Nc2ccc(C(=O)OCCC)cc2)c(O)c2ccccc21`, the pEC50 was 6.15.

Turning to `CCCCCCn1c(=O)c(C(=O)Nc2ccc(C(=O)OC(C)(C)C)cc2)c(O)c2ccccc21`, the negative-log EC50 (pEC50) was 5.51.

As to `C=CCn1c(=O)c(C(=O)Nc2ccc(C(=O)OCCC)cc2)c(O)c2ccccc21`, the pEC50 is 5.47.

As for `CCCOC(=O)c1ccc(NC(=O)c2c(O)c3cc(F)ccc3n(CCC)c2=O)cc1`, the negative-log EC50 (pEC50) is 5.62.

Consider `CCCCCCn1c(=O)c(C(=O)Nc2ccc(C(=O)OCc3ccccc3)cc2)c(O)c2ccccc21`, for which the pEC50 is 5.70.

As for `CCCOC(=O)c1ccc(NC(=O)c2c(O)c3cc(Cl)ccc3n(CCC)c2=O)cc1`, the pEC50 is 5.31.

With `CCCOC(=O)c1ccc(NC(=O)c2c(O)c3cccc4c3n(c2=O)CCC4)cc1`, the negative-log EC50 (pEC50) is 6.10.

Turning to `c1ccc2c(Oc3nc(Nc4ccc(N5CCOCC5)cc4)c4ncn(C5CCCCC5)c4n3)cccc2c1` [Purmorphamine], the pEC50 is 6.10.

Regarding `CCCCCn1c(=O)c(C(=O)Nc2ccc(C(=O)OCC)cc2)c(O)c2ccccc21`, the pEC50 is 6.05.

Regarding `CCCCCCn1c(=O)c(C(=O)Nc2ccc(C(=O)OCCC)cc2)c(O)c2ccccc21`, the pEC50 was 5.92.

In the case of `CCCOC(=O)c1ccc(NC(=O)c2c(O)c3cc(OC)c(OC)cc3n(CCC)c2=O)cc1`, the pEC50 is 6.44.

As to `CCCOC(=O)c1ccc(NC(=O)c2c(O)c3cc(C)ccc3n(CCC)c2=O)cc1`, the pEC50 is 5.92.

Regarding `CCCCCCn1c(=O)c(C(=O)Nc2ccc(C(=O)O)cc2)c(O)c2ccccc21`, the pEC50 was 6.22.

Take `CCCCn1c(=O)c(C(=O)Nc2ccc(C(=O)OCCC)cc2)c(O)c2ccccc21`: the pEC50 was 6.10.

For `CCCCCn1c(=O)c(C(=O)Nc2ccc(C(=O)OCCCC)cc2)c(O)c2ccccc21`, the pEC50 was 6.22.

As to `CCCOC(=O)c1ccc(NC(=O)c2c(O)c3ccccc3n(CCC)c2=O)cc1`, the pEC50 is 5.59.

In the case of `CCCCCCn1c(=O)c(C(=O)Nc2ccc(C(=O)NCCCC)cc2)c(O)c2ccccc21`, the pEC50 was 5.24.

On to `CCCCCCn1c(=O)c(C(=O)Nc2ccc(C(=O)OCC)cc2)c(O)c2ccccc21`, for which the pEC50 was 5.44.
